Experiments:
[1] = test system: IFN-2α-stimulated TYK2/JAK1-mediated pathway (pSTAT3); test: Inhibition of STAT3 signaling pathway of human whole blood (IFN-2α-induced pSTAT3, flow cytometry); assay type: cell-based
Method: Test Example 3: Inhibition Effect of the Compounds of the Present Invention on STAT3 Signaling Pathway of Human Whole Blood
Sample preparation: The compounds of the present invention and the control were dissolved in DMSO solvent respectively to formulate into 10 mM initial liquid. The maximum concentration of the compound was 10 μM, 3-fold dilution, 10 concentration gradients, and duplicate wells for each concentration gradient.
Experimental process: 20 μL of the compound of the present invention was added to a flow cytometer tube (BD, 352052) containing 180 μL anticoagulant sodium heparin. 20 μL PBS was added to the control. The sample was incubated at 37° C. for 30 min. 2 μL stimulating factor was added and then incubated at 37° C. for 20 min. 1 mL erythrocyte lysate was rapidly added, and the sample was repeatedly inverted 5-10 times or vortexed and then incubated at 37° C. for 10 min. The sample was centrifuged at 600 g for 6-8 min. The supernatant was discarded. The precipitate was vortexed until suspending. The cells were washed with 3 mL PBS and centrifuged at 600 g for 6-8 min. The supernatant was discarded. The precipitate was vortexed until suspending. 1 mL of membrane breaking solution was added, and the system was mixed gently, incubated on ice for 30 min, and centrifuged at 600 g for 6-8 min. The supernatant was discarded. The precipitate was vortexed until suspending. The cells were washed. 3 mL PBS was added. The system was centrifuged at 600 g for 6-8 min. The supernatant was discarded. The precipitate was vortexed untile suspending. The process was repeated twice. 100 μL PBS was added to each staining tube. IFN-2a was added for stimulation, and CD3 and pSTAT3 antibodies […] were added. The system was mixed well, protected from light and incubated at room temperature for 60 min. The cells were washed. 3 mL PBS was added. The system was centrifuged at 600 g for 6-8 min. The supernatant was discarded. The precipitate was vortexed until suspending. The precipitate was suspended in 150 μL in the dark for the flow cytometry analysis. The IC50 (half inhibitory concentration) of the compounds was obtained by using the following non-linear fitting equation:
Y=Bottom+(Top−Bottom)/(1+10^((Log IC50−X)*HillSlope));
X: Log value of the concentration of the compound;
Bottom: The minimum value, Top: The maximum value, HillSlope: Slope
The inhibition effect of by the compounds of the present invention on the IFN-2α-stimulated TYK2/JAK1-mediated pathway is shown in Table 3. IC50 value of 0-100 nM is shown as A, IC50 value of 100-300 nM is shown as B, IC50 value of 300-1000 nM is shown as C, IC50 value which is greater than 1000 nM is shown as D. NT means not tested.

JAK1 kinase = molecular target: T1, JAK1 kinase (Homo sapiens, UniProt P23458); test: In vitro inhibitory activity on JAK1 kinase (ADP-Glo Kinase Assay); assay type: biochemical; conditions: JAK1 kinase 4 nM, 1 mM ATP
T1 construct: purchased Invitrogen PV4744
T1 sequence (P23458 866-1154 limits assumed): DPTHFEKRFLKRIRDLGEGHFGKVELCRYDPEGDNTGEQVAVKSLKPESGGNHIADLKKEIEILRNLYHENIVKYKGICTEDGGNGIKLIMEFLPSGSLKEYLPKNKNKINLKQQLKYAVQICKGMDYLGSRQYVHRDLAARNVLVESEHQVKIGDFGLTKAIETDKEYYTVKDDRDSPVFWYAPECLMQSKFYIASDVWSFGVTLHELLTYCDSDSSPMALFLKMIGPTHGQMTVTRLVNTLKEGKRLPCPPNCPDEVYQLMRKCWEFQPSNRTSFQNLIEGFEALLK
How it was run: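 JAK1 (4 nM final) preincubated with compound 15 min at 25° C., then substrate mix (1 mM ATP, IRS1 0.05 mg/ml) added for 60 min at 25° C. ADP-Glo luminescence read-out; top concentration 10 μM, 3-fold, 10 points, duplicates; IC50 reported in ranged classes.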

Row | Compound | IC50 [1] [nM] | IC50 (JAK1 kinase) [nM]
1 | Cn1cc(Nc2nccc(C3=CC4CCC(C3)N4C(=O)[C@@H]3CC3(F)F)n2)cn1 (stereo partly drawn) [Compound 1, ((S)-2,2-difluorocyclopropyl)(3-(2-((1-methyl-1H-pyrazol-4-yl)amino)pyrimidin-4-yl)-8-azabicyclo[3.2.1]oct-2-en-8-yl)methanone] | < 100 | < 100
2 | Cn1cc(Nc2nccc(C3=C[C@H]4CC[C@@H](C3)N4C(=O)[C@@H]3CC3(F)F)n2)cn1 [Compound 1-b, ((S)-2,2-difluorocyclopropyl)((1R,5S)-3-(2-((1-methyl-1H-pyrazol-4-yl)amino)pyrimidin-4-yl)-8-azabicyclo[3.2.1]oct-2-en-8-yl)methanone] | < 100 | < 100
3 | Cn1cc(Nc2nccc(C3=CC4CCC(C3)N4C(=O)NCC(F)(F)F)n2)cn1 (stereo not drawn) [Compound 3, 3-(2-((1-methyl-1H-pyrazol-4-yl)amino)pyrimidin-4-yl)-N-(2,2,2-trifluoroethyl)-8-azabicyclo[3.2.1]oct-2-ene-8-carboxamide] | < 100 | 100 to 300

Source: patent publication US20220348572A1, “BRIDGED HETEROCYCLYL-SUBSTITUTED PYRIMIDINE COMPOUND, PREPARATION METHOD THEREFOR, AND PHARMACEUTICAL USE THEREOF” (The National Institutes of Pharmaceutical R&D Co., Ltd., priority 2019, published 2022)
